Data from PubChem BioAssay (NCI).
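Cultured in 96-well plates, cells were exposed to test compound for 48 hours across five concentrations. TGI: concentration producing complete growth inhibition.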

Legend:
Assay in all cases: DTP human tumour cell line panel, 48 h
NCI-H23 lung = tested on: NCI-H23 lung
MCF7 breast = tested on: MCF7 breast
EKVX NSCLC = tested on: EKVX NSCLC
SNB-75 CNS = tested on: SNB-75 CNS
OVCAR-8 ovarian = tested on: OVCAR-8 ovarian
MALME-3M melanoma = tested on: MALME-3M melanoma
NCI-H460 lung = tested on: NCI-H460 lung
UACC-257 melanoma = tested on: UACC-257 melanoma
NCI-H522 lung = tested on: NCI-H522 lung
SK-OV-3 ovarian = tested on: SK-OV-3 ovarian
MDA-MB-231 breast = tested on: MDA-MB-231 breast
NCI/ADR-RES ovarian = tested on: NCI/ADR-RES ovarian
LOX IMVI melanoma = tested on: LOX IMVI melanoma
A498 renal = tested on: A498 renal
MDA-MB-435 = tested on: MDA-MB-435
SNB-19 CNS = tested on: SNB-19 CNS
TK-10 renal = tested on: TK-10 renal
SF-539 CNS = tested on: SF-539 CNS

| Structure (SMILES) | TGI (NCI-H23 lung) [µM] | TGI (MCF7 breast) [µM] | TGI (EKVX NSCLC) [µM] | TGI (SNB-75 CNS) [µM] | TGI (OVCAR-8 ovarian) [µM] | TGI (MALME-3M melanoma) [µM] | TGI (NCI-H460 lung) [µM] | TGI (UACC-257 melanoma) [µM] | TGI (NCI-H522 lung) [µM] | TGI (SK-OV-3 ovarian) [µM] | TGI (MDA-MB-231 breast) [µM] | TGI (NCI/ADR-RES ovarian) [µM] | TGI (LOX IMVI melanoma) [µM] | TGI (A498 renal) [µM] | TGI (MDA-MB-435) [µM] | TGI (SNB-19 CNS) [µM] | TGI (TK-10 renal) [µM] | TGI (SF-539 CNS) [µM] |
| --- | --- | --- | --- | --- | --- | --- | --- | --- | --- | --- | --- | --- | --- | --- | --- | --- | --- | --- |
| C#CC(O)/C=C/C(O)CCCC(O)CC#CC(O)C#CCCCCC(O)/C=C/CCCCCC(=O)CCCCCCCCCCCCCC(O)C(O)C#CC(=O)O (centres undefined) | > 25 | > 25 | > 25 | > 25 | > 25 | > 25 | > 25 | > 25 | 9.83 | > 25 | > 25 | > 25 | 9.88 | > 25 | > 25 | > 25 | > 25 |  |
| NN/C(=N\S(=O)(=O)c1cc(S(=O)(=O)c2ccccc2)cs1)Nc1ccc(Cl)cc1 | > 100 | > 100 | 55.7 | 67.2 | > 100 |  | 56.6 | 47.5 | 41.3 | > 100 | > 100 | > 100 | 54.9 | > 100 |  | > 100 | 81.7 | > 100 |
| Cc1c(CN2CCOCC2)c(CN2CCOCC2)c(C)n1-c1ccc(Cl)cn1 | > 100 | > 100 | > 100 | > 100 | > 100 | > 100 | > 100 | > 100 | > 100 | > 100 | > 100 | > 100 |  | > 100 | > 100 | > 100 | > 100 |  |
| O=S(=O)(Cc1ccccc1)c1nnc(S(=O)(=O)c2ccc(Cl)cc2)s1 | 54.2 | > 100 | 62 | 32.5 | 42.8 |  | 48.2 | 48.8 | 30.8 | 47.8 | 91.7 | 77.9 |  | 43.6 | 90.6 | 60.2 | 41.9 | 63.3 |
| C=C(CN(C)C)C(=O)c1ccccc1 | 45 |  | 46.3 | 39.7 | 44.6 | 11.1 | 37.5 | 27.6 | 1.69 | 41 | 31.4 | > 100 | 15.4 | 41.7 | 27.3 | 53.1 | 13.4 | 27.1 |
| C=C1[C@@H](OC(C)=O)/C=C/C2C3C(=O)[C@@](C)(OC(C)=O)[C@H]([C@H](OC(C)=O)[C@]4(O)[C@@H](C)C(=O)O[C@H]4[C@H]1Cl)[C@@]23C (some centres undefined) | > 100 |  | > 100 | > 100 | > 100 | > 100 | > 100 | > 100 | > 100 | > 100 | > 100 | > 100 | > 100 | > 100 | > 100 | > 100 | > 100 |  |
| Cc1ccc(NC(=O)CC(=O)N2N=C(N(c3ccccc3)c3ccccc3)CC2c2ccccc2)cc1 (centres undefined) | > 100 | > 100 | > 100 | > 100 | > 100 |  | > 100 | > 100 | > 100 | > 100 | > 100 | > 100 |  | > 100 | > 100 | > 100 | > 100 | > 100 |
